According to patent publication US10494332B2, “Protein tyrosine phosphatases or SHP2 inhibitors and uses thereof” (Indiana University Research and Technology Corporation, priority 2015, dated 2019):

How the values were obtained:
Type in all cases: biochemical
LMWPTP = biological target: T1, LMWPTP (Homo sapiens, UniProt P24666); test: PTP inhibition assay (pNPP)
T1 sequence (P24666 1-158): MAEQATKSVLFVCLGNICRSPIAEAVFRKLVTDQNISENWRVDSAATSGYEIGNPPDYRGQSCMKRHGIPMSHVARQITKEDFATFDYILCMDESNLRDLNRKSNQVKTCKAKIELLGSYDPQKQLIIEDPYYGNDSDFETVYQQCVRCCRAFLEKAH

TbPTP1 = TbPTP1 (Trypanosoma brucei brucei, UniProt Q38AT7); test: PTP inhibition assay (pNPP); settings: IC50 TbPTP1, pNPP at Km, pH 7.0, 25° C.
SHP1 = SHP1 (Homo sapiens, UniProt P29350); test: PTP inhibition assay (pNPP); settings: pNPP at Km, pH 7.0, 25° C.
STEP = biological target: T2, STEP (Homo sapiens, UniProt P54829); test: PTP inhibition assay (pNPP); settings: IC50 STEP, pNPP at Km, pH 7.0, 25° C.
T2 sequence (P54829 1-565): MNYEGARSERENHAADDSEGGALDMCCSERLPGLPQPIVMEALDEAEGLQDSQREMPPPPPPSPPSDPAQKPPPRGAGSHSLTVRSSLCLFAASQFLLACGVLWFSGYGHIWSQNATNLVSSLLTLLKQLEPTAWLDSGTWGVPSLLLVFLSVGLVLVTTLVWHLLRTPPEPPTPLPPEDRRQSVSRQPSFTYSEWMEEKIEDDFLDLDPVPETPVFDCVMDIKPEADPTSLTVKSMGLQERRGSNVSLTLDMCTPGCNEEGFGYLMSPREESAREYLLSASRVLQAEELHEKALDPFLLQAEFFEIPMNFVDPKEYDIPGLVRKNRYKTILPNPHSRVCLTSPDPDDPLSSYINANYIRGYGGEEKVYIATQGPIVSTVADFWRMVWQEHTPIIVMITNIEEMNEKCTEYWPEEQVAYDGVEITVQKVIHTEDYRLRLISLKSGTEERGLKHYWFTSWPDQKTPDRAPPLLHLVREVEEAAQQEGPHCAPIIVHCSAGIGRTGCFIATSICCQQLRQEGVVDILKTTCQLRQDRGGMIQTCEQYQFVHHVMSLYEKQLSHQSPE

VHX = biological target: T3, VHX (Homo sapiens, UniProt Q9NRW4); test: PTP inhibition assay (pNPP); settings: IC50 VHX, pNPP at Km, pH 7.0, 25° C.
T3 sequence (Q9NRW4 1-184): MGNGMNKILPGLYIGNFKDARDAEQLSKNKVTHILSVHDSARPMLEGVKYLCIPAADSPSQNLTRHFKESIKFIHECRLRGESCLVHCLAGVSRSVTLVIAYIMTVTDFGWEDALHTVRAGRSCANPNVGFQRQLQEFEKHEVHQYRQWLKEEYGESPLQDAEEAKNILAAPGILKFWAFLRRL

Laforin = biological target: T4, Laforin (Homo sapiens, UniProt O95278); test: PTP inhibition assay (pNPP); settings: for IC50: pNPP at Km, pH 7.0, 25° C., read-out: IC50 Laforin
T4 sequence (O95278 1-331): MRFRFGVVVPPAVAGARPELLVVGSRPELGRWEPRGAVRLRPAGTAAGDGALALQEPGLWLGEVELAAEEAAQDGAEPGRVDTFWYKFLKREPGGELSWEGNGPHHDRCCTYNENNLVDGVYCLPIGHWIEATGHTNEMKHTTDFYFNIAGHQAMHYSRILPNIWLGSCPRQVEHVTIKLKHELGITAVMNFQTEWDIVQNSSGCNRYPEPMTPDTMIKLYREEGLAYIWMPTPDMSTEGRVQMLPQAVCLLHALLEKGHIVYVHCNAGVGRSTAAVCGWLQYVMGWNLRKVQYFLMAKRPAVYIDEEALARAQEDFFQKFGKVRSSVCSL

PEST = biological target: T5, PEST (Homo sapiens, UniProt Q05209); test: PTP inhibition assay (pNPP); settings: pNPP at Km, pH 7.0, 25° C.; read-out: IC50 PEST
T5 sequence (Q05209 1-780): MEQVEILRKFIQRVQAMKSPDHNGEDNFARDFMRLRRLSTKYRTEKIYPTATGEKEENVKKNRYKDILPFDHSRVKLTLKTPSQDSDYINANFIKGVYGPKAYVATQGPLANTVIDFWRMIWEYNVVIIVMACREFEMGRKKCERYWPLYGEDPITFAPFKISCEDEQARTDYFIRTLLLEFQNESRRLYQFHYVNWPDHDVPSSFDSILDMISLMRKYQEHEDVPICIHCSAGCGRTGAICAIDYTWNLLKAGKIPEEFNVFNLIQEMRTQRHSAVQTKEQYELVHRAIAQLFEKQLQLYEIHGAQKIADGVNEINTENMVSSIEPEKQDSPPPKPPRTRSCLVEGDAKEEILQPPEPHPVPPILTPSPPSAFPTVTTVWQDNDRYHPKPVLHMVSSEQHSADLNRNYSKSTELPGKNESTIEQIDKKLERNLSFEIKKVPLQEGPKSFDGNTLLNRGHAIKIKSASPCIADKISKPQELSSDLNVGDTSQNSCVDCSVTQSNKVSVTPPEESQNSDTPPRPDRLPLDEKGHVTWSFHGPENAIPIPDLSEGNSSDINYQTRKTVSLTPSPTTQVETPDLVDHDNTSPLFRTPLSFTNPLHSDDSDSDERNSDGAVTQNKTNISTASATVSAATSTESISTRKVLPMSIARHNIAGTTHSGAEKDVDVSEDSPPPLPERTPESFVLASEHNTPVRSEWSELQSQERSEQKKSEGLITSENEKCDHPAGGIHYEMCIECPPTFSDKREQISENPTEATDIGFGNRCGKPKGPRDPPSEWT

PTP1B = biological target: T6, PTP1B (Homo sapiens, UniProt P18031); test: PTP inhibition assay (pNPP); settings: pNPP at Km, pH 7.0, 25° C.
T6 sequence (P18031 1-435): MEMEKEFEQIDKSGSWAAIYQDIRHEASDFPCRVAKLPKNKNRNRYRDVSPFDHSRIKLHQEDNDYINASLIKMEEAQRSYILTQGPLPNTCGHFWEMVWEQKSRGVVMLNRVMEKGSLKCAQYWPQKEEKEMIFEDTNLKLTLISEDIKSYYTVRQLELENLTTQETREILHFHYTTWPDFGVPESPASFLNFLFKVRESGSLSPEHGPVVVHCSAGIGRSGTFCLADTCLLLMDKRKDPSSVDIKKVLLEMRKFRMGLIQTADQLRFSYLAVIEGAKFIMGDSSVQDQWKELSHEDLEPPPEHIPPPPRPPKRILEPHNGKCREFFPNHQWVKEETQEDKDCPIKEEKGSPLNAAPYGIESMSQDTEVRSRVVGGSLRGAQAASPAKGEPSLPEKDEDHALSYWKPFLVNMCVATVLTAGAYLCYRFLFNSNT

LYP = biological target: T7, LYP (Homo sapiens, UniProt Q9Y2R2); test: PTP inhibition assay (pNPP); settings: pNPP at Km, pH 7.0, 25° C.
T7 sequence (Q9Y2R2 1-807): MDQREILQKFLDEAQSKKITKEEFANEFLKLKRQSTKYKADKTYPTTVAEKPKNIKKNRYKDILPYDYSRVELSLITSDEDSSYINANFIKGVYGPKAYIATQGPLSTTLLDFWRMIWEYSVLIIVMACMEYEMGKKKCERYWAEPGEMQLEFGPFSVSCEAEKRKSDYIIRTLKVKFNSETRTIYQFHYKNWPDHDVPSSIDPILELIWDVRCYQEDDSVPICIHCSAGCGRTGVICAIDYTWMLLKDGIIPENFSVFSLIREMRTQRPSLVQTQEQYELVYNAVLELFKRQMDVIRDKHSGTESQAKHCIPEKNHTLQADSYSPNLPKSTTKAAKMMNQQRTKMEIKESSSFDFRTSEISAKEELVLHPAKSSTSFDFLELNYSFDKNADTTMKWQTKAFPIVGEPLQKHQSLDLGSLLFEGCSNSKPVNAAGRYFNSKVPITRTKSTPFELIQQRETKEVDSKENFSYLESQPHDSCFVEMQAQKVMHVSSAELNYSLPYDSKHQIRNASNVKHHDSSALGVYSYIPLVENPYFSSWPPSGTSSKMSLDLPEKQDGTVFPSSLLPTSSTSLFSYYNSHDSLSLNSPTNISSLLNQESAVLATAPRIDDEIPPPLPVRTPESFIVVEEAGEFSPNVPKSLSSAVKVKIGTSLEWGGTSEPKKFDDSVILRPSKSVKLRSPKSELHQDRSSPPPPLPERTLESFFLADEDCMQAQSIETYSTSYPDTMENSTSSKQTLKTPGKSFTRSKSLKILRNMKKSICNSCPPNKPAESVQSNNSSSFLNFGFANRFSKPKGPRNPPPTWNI

SHP2 = biological target: T8, SHP2 (Homo sapiens, UniProt Q06124); test: SHP2 phosphatase inhibition assay (pNPP); settings: pNPP at Km, pH 7.0, 25° C.; read-out: IC50 SHP2
T8 sequence (Q06124 224-528): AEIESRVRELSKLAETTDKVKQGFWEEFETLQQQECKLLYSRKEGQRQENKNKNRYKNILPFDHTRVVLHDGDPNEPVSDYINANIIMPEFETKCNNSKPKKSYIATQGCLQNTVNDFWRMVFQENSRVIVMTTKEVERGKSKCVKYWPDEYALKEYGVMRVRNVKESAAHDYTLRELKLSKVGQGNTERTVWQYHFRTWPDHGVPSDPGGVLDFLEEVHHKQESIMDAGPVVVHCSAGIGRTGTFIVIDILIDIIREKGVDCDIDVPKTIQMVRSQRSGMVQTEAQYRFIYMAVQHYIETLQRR

CD45 = biological target: T9, CD45 (Homo sapiens, UniProt P08575); test: PTP inhibition assay (pNPP); settings: pNPP at Km, pH 7.0, 25° C.
T9 sequence (P08575 26-1306): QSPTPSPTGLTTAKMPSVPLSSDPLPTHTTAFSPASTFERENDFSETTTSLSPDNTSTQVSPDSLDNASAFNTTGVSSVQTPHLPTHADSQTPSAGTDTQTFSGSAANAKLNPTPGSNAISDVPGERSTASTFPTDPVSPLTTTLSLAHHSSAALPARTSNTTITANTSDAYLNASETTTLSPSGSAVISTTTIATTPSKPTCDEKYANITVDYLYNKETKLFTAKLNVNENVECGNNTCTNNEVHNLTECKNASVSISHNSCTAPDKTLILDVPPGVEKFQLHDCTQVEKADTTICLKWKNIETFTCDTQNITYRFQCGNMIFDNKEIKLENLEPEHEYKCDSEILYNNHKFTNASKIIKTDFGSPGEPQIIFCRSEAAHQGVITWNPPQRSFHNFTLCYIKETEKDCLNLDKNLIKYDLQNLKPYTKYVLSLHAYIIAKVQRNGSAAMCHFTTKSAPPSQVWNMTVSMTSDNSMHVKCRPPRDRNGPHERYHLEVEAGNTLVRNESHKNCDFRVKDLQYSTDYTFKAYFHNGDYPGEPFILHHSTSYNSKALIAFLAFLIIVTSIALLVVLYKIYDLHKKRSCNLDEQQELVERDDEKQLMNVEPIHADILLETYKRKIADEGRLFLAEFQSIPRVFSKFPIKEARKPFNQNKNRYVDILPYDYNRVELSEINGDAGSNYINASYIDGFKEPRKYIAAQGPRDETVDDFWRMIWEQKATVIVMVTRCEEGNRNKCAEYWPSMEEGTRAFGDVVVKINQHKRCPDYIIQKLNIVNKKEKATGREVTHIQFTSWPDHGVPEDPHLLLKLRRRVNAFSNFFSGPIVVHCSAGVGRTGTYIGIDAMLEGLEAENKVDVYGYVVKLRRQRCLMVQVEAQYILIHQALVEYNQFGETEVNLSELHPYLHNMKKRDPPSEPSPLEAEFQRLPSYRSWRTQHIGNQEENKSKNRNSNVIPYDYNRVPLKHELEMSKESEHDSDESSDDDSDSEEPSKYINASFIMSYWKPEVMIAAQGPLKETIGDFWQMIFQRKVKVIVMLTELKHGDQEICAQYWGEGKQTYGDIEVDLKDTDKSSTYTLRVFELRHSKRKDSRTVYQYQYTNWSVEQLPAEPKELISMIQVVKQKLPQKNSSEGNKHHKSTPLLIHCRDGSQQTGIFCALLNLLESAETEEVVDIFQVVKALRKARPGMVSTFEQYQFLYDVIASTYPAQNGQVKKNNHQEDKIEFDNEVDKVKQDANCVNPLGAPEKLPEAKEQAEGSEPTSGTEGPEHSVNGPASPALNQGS

SHP1, sequence (P29350 whole entry): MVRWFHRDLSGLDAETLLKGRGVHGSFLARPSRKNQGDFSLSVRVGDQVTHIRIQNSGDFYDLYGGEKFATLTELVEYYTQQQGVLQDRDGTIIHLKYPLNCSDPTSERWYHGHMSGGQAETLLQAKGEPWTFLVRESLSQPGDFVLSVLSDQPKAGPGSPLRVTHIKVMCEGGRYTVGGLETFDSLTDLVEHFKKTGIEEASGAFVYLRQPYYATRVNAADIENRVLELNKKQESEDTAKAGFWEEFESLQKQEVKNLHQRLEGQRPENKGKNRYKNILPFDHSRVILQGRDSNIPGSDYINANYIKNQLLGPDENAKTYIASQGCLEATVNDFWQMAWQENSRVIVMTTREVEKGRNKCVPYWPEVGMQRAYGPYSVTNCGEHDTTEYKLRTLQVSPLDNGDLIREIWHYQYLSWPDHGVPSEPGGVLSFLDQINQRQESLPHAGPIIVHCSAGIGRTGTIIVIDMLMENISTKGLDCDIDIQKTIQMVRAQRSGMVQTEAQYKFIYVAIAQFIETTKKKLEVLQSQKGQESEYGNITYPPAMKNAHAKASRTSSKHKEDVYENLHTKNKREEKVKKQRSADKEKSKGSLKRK
TbPTP1, sequence (Q38AT7 entry or part of it): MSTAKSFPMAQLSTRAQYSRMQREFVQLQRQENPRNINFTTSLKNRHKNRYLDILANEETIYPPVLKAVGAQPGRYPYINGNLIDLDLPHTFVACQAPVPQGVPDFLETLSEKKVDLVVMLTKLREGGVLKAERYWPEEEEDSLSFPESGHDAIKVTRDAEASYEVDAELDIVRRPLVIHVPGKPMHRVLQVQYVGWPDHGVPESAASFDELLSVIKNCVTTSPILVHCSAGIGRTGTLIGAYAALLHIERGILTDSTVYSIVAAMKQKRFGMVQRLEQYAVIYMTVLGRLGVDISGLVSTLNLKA

Row | SMILES | IC50 (SHP1) [µM] | IC50 (LMWPTP; pNPP at Km, pH 7.0, 25° C.) [µM] | IC50 (Laforin) [µM] | IC50 (PEST) [µM] | also measured
1 | O=C(Nc1ccc(-n2ccnc2)cc1)C(c1ccccc1)S(=O)(=O)O (centres unmarked) [Compound L319M63] | > 200 | – | – | – | IC50 (LMWPTP; pH 7): 7.7 µM; IC50 (TbPTP1): > 100 µM; IC50 (STEP): > 100 µM; IC50 (VHX): > 200 µM
2 | O=C(O)Cc1csc(NC(=O)C(c2ccccc2)S(=O)(=O)O)n1 (centres unmarked) [Compound L319N72] | – | 98.1 | 4.8 | > 200 | –
3 | CO[C@@]1(NC(=O)C(C(=O)O)c2ccc(O)cc2)C(=O)N2C(C(=O)O)=C(CSc3nnnn3C)CO[C@@H]21 (some centres unmarked) [moxalactam, reference compound] | 170 | – | – | – | –
4 | O=C(Nc1nnc(-c2ccccc2)s1)C(c1ccccc1)S(=O)(=O)O (centres unmarked) [Compound L319M73-2] | – | 10.2 | 1.3 | > 200 | Fold specificity for Laforin over LMPTP (Laforin; ratio of IC50): 8 fold; Fold specificity for Laforin over other PTPs (Laforin; ratio of IC50): 100 fold
5 | COc1cccc2sc(NC(=O)C(c3ccccc3)S(=O)(=O)O)nc12 (centres unmarked) [Compound L319N15-03] | – | 7.6 | 1.2 | – | IC50 (PTP1B): > 200 µM; IC50 (LYP): > 200 µM; IC50 (SHP2): > 200 µM; IC50 (CD45): > 200 µM
